Results as given in US12280072B2, “Oligosaccharide compound for inhibiting intrinsic coagulation factor X-enzyme complex, and preparation method therefor and uses thereof” (Jiuzhitang Co., Ltd., priority 2017, dated 2025).
Where two headings read alike, the source gives them in different places.

Experiments:
Format in all cases: biochemical
FIIa (Homo sapiens) = molecular target: T1, FIIa (Homo sapiens); test: AT-dependent IIa inhibitory activity assay
T1 construct: antithrombin (i.e., active coagulation factor IIa); purchased
Procedure: AT-dependent IIa inhibitory activity assay: Heparin Anti-FIIa kit was used for detection. To a 96-well plate, 30 μL of sample, control solution or Tris-HCl buffer (negative control) was added, and then 30 μL of 1 IU/mL AT solution was added, mixed well by shaking the plate and incubated at 37° C. for 2 min; 30 μL of 24 IU/mL FIIa solution was added, mixed well by shaking the plate and incubated for 2 min at 37° C., and then 30 μL of pre-warmed 1.25 mM FIIa specific chromogenic substrate CS-01 (38) was added, mixed well by shaking the plate. The OD405 was detected by a microplate reader and the IC50 value of FIIa inhibition of each sample was calculated.
(§1) Data processing: The average value of OD405 detected by the duplicated well was used as the detection value of the test sample and the reference of each concentration, and the slope of the linear fit between the detected value to the time value (the change rate of the absorbance value OD405/min) indicated enzymatic activity of coagulation factor. Taking the clotting factor activity of the negative control well as 100%, coagulation factor activity (percentage) in the presence of the test sample was calculated. The coagulation factor activity in the presence of the test sample was plotted against the concentration of the test sample, and fitted according to the following formula, to calculate the IC50 value: B=(IC50)^n/{(IC50)^n+[I]^n}
(§2) in the formula, B is the coagulation factor activity (percentage) in the presence of the test sample, [I] is the concentration of the test sample, IC50 is the half inhibitory concentration (concentration of the test sample required to inhibit 50% of the activity), and n is the Hill coefficient. • (4) Effect on surface activation and platelet activity: […]

human-controlled plasma [1] = test: Anticoagulant activity assay: APTT clotting time
Procedure: (§3) 8.2 Methods • (1) Preparation of sample solution: Oligosaccharide compounds A1˜A8, B1˜B11 and oligosaccharide mixtures C1, D1, D2 were all dissolved in Tris-HCl buffer and diluted to the desired series of solubility. • (2) Anticoagulant activity assay: 90 μL of human-controlled plasma was added to the sample or 10 μL of the control solution, and then the clotting time (APTT and PT) was detected by the MC-4000 coagulometer according to the method described in the APTT and PT kit instructions. • (3) Coagulation factor inhibitory activity analysis: […]

intrinsic factor Xase = molecular target: T2, intrinsic factor Xase (Homo sapiens, UniProt P00740); test: Xase inhibitory activity assay
T2 construct: 60 nM FIXa; purchased
Procedure: Xase inhibitory activity assay: Detection was performed according to kit instructions and literature methods by combining the Factor VIII and […]. Specifically, to each well of a 96-well plate, 30 μL of test solution, control solution, or Tris-HCl buffer (negative control) was added, and 30 μl of FVIII (2 IU/ml), 30 μl of R2 (60 nM FIXa, containing FIIa, PC/PS, Ca^2+) were sequentially added, mixed by shaking the plate, incubated at 37° C. for 2 min; and then 30 μL of R1 (50 nM FX, containing direct thrombin inhibitor) was added, mixed by shaking the plate, incubated at 37° C. for 1 min; and then 30 μL of R3 (FXa chromogenic substrate SXa-11, about 8.4 mM) was added. The absorbance at 405 nm (OD405) was detected with a microplate reader, continuously measuring for 7.5 min at a interval of 30 s. The Xase activity and IC50 value of Xase inhibition of the test sample were calculated based on the OD405 change value.
as §1, §2

FXa (Homo sapiens) = molecular target: T3, FXa (Homo sapiens); test: AT-dependent Xa inhibitory activity assay
T3 construct: 8 μg/mL FXa solution; purchased
Procedure: AT-dependent Xa inhibitory activity assay: Heparin […] kit was used for detection. To a 96-well plate, 30 μL of sample, control solution or Tris-HCl buffer (negative control) was added, then 30 μL of 1 IU/mL AT solution was added, mixed well and incubated at 37° C. for 1 min; and than 30 μL of 8 μg/mL FXa solution was added, mixed well and incubated at 37° C. for 1 min, then 30 μL of pre-warmed 1.25 mM Xa chromogenic substrate SXa-11 was added. OD405 was detected by a microplate reader.
as §1, §2

plasma = test: TT (thrombin time) clotting time
human-controlled plasma [2] = test: Anticoagulant activity assay: PT clotting time
Procedure: as §3

[3] = read-out: Drug concentration required to inhibit 50% of coagulation factor activity (IC50, ng/mL) Ha (AT); in presence of AT
[4] = read-out: Drug concentration required to inhibit 50% of coagulation factor activity (IC50, ng/mL) Xase
[5] = read-out: Drug concentration required to inhibit 50% of coagulation factor activity (IC50, ng/mL) Xa (AT); in presence of AT
[6] = in presence of AT; read-out: Drug concentration required to inhibit 50% of coagulation factor activity (IC50, ng/mL) Ha (AT)
[7] = read-out: Drug concentration required to inhibit 50% of coagulation factor activity (IC50, ng/mL) Xase (converted)
[8] = in presence of AT; read-out: Drug concentration required to inhibit 50% of coagulation factor activity (IC50, ng/mL) Xa (AT)

T2 sequence (P00740 47-191 limits assumed): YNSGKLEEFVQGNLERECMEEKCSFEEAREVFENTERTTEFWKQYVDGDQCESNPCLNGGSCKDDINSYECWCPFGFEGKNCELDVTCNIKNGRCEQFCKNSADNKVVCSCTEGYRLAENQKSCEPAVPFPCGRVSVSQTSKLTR
T2 sequence (P00740 227-461 limits assumed): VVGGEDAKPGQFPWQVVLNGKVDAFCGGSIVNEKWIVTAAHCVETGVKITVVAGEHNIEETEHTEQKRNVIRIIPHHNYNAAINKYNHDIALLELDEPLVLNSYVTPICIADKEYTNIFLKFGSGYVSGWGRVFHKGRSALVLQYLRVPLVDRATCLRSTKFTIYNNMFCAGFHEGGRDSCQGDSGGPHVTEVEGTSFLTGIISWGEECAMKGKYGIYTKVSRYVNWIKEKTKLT
T1 sequence (P01008 33-464): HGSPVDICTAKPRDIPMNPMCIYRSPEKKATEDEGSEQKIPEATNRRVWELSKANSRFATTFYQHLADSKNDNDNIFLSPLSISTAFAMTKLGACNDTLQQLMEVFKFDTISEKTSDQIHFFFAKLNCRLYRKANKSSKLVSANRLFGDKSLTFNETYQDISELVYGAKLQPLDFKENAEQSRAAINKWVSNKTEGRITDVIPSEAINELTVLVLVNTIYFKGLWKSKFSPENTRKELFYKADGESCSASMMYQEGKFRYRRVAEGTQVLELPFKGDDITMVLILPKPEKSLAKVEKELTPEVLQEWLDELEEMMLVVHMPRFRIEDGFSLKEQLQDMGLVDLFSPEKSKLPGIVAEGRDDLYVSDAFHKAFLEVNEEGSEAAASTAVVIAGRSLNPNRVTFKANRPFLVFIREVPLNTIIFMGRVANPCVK
T3 sequence (P01008 33-464): as above

Row | IC50 (FIIa (Homo sapiens); [6]) [nM] | IC50 (intrinsic factor Xase; [7]) [nM] | IC50 (FXa (Homo sapiens); [8]) [nM] | SMILES | IC50 (FIIa (Homo sapiens); [3]) [nM] | Drug concentration required for multiplication of coagulation time (μg/mL) APTT (human-controlled plasma [1]) [µg/mL] | IC50 (intrinsic factor Xase; [4]) [nM] | IC50 (FXa (Homo sapiens); [5]) [nM] | Drug concentration required for multiplication of coagulation time (μg/mL) TT (plasma) | Drug concentration required for multiplication of coagulation time (μg/mL) PT (human-controlled plasma [2])
1 | – | – | – | CC(=O)NC1C(OC2C(C(=O)O)OC(OC3C(NC(C)=O)C(OC4C(C(=O)O)OC(OC5C(NC(C)=O)C(OC6C(C(=O)O)OC(OC7C(NC(C)=O)C(OC(C(O)C(=O)O)C(OC8OC(C)C(OS(=O)(=O)O)C(OS(=O)(=O)O)C8O)C(O)CO)OC(COS(=O)(=O)O)C7OS(=O)(=O)O)C(O)C6OC6OC(C)C(OS(=O)(=O)O)C(OS(=O)(=O)O)C6O)OC(COS(=O)(=O)O)C5OS(=O)(=O)O)C(O)C4OC4OC(C)C(OS(=O)(=O)O)C(OS(=O)(=O)O)C4O)OC(COS(=O)(=O)O)C3OS(=O)(=O)O)C(O)C2OC2OC(C)C(OS(=O)(=O)O)C(OS(=O)(=O)O)C2O)OC(COS(=O)(=O)O)C(OS(=O)(=O)O)C1OC1OC(C(=O)O)=CC(OC2OC(C)C(OS(=O)(=O)O)C(OS(=O)(=O)O)C2O)C1O [Compound B4, L-Fuc3S4S-(α1,3)-L-ΔUA-(α1,3)-{D-GalNAc4S6S-(β1,4)-[L-Fuc3S4S-(α1,3)]-D-GlcA-(β1,3)}˜-D-GalNAc4S6S-(β1,4)-[L-Fuc3S4S-(α1,3)]-D-GlcA-ol] | > 1290 | 4.5 | 5.33 | > 1290 | # (>128 μg/mL) | # (>128 μg/mL)
2 | > 1930 | 27.2 | > 1930 | COCC(NC(C)=O)C(OC1OC(C(=O)OC)C(OC2OC(COS(=O)(=O)O)C(OS(=O)(=O)O)C(OC3OC(C(=O)OC)C(OC4OC(COS(=O)(=O)O)C(OS(=O)(=O)O)C(OC5OC(C(=O)OC)=CC(OC6OC(C)C(OS(=O)(=O)O)C(O)C6OS(=O)(=O)O)C5O)C4NC(C)=O)C(OC4OC(C)C(OS(=O)(=O)O)C(O)C4OS(=O)(=O)O)C3O)C2NC(C)=O)C(OC2OC(C)C(OS(=O)(=O)O)C(O)C2OS(=O)(=O)O)C1O)C(OS(=O)(=O)O)C(O)COS(=O)(=O)O [Compound A8, L-Fuc2S4S-(α1,3)-[6-Methyl-ΔUA-(α1,3)]-{D-GaNAc4S6S-(β1,4)-[L-Fuc2S4S-(α1,3)-]-D-6-Methyl-GlcA-(β1,3)}2-D-1-Methyl-Gal-NAc4S6S-ol] | – | 8.2 | – | – | # (>128 μg/mL) | # (>128 μg/mL)
3 | – | – | – | CC(=O)NC1C(OC2C(C(=O)O)OC(OC3C(NC(C)=O)C(OC4C(C(=O)O)OC(OC5C(NC(C)=O)C(OC6C(C(=O)O)OC(OC7C(NC(C)=O)C(OC8C(C(=O)O)OC(OC9C(NC(C)=O)C(OC(C(O)C(=O)O)C(OC%10OC(C)C(OS(=O)(=O)O)C(OS(=O)(=O)O)C%10O)C(O)CO)OC(COS(=O)(=O)O)C9OS(=O)(=O)O)C(O)C8OC8OC(C)C(OS(=O)(=O)O)C(OS(=O)(=O)O)C8O)OC(COS(=O)(=O)O)C7OS(=O)(=O)O)C(O)C6OC6OC(C)C(OS(=O)(=O)O)C(OS(=O)(=O)O)C6O)OC(COS(=O)(=O)O)C5OS(=O)(=O)O)C(O)C4OC4OC(C)C(OS(=O)(=O)O)C(OS(=O)(=O)O)C4O)OC(COS(=O)(=O)O)C3OS(=O)(=O)O)C(O)C2OC2OC(C)C(OS(=O)(=O)O)C(OS(=O)(=O)O)C2O)OC(COS(=O)(=O)O)C(OS(=O)(=O)O)C1OC1OC(C(=O)O)=CC(OC2OC(C)C(OS(=O)(=O)O)C(OS(=O)(=O)O)C2O)C1O [Compound B5, L-Fuc3S4S-(α1,3)-L-ΔUA-(α1,3)-{D-GalNAc4S6S-(β1,4)-[L-Fuc3S4S-(α1,3)]-D-GlcA-(β1,3)}˜-D-GalNAc4S6S-(β1,4)-[L-Fuc3S4S-(α1,3)]-D-GlcA-ol] | > 1060 | 4.0 | 4.2 | > 1060 | # (>128 μg/mL) | # (>128 μg/mL)
4 | > 1480 | 11.8 | > 1480 | CC(=O)NC(CO)C(OC1OC(C(=O)O)C(OC2OC(COS(=O)(=O)O)C(OS(=O)(=O)O)C(OC3OC(C(=O)O)C(OC4OC(COS(=O)(=O)O)C(OS(=O)(=O)O)C(OC5OC(C(=O)O)C(OC6OC(COS(=O)(=O)O)C(OS(=O)(=O)O)C(OC7OC(C(=O)O)=CC(OC8OC(C)C(OS(=O)(=O)O)C(O)C8OS(=O)(=O)O)C7O)C6NC(C)=O)C(OC6OC(C)C(OS(=O)(=O)O)C(O)C6OS(=O)(=O)O)C5O)C4NC(C)=O)C(OC4OC(C)C(OS(=O)(=O)O)C(O)C4OS(=O)(=O)O)C3O)C2NC(C)=O)C(OC2OC(C)C(OS(=O)(=O)O)C(O)C2OS(=O)(=O)O)C1O)C(OS(=O)(=O)O)C(O)COS(=O)(=O)O [Compound A3, L-Fuc2S4S-(α1,3)-ΔUA-(α1,3)-{D-GaNAc4S6S-(β1,4)-[L-Fuc2S4S-(α1,3)]-D-GlcA-(β1,3)}n+1-D-GalNAc4S6S-ol] | – | 6.8 | – | – | # (>128 μg/mL) | # (>128 μg/mL)
5 | > 2300 | 26.8 | > 2300 | CC(=O)NC1C(OC2C(C(=O)O)OC(OC3C(NC(C)=O)C(OC4C(C(=O)O)OC(O)C(O)C4OC4OC(C)C(OS(=O)(=O)O)C(OS(=O)(=O)O)C4O)OC(COS(=O)(=O)O)C3OS(=O)(=O)O)C(O)C2OC2OC(C)C(OS(=O)(=O)O)C(OS(=O)(=O)O)C2O)OC(COS(=O)(=O)O)C(OS(=O)(=O)O)C1OC1OC(C(=O)O)=CC(OC2OC(C)C(OS(=O)(=O)O)C(OS(=O)(=O)O)C2O)C1O [Compound B7, L-Fuc3S4S-(α1,3)-L-ΔUA-(α1,3)-{D-GaNAc4S6S-(β1,4)-[L-Fuc3S4S-(α1,3)]-D-GlcA-(β1,4)}˜-D-GalNAc4S6S-(β1,4)-[L-Fuc3S4S-(α1,3)]-D-GlcA] | – | 7.3 | – | – | # (>128 μg/mL) | # (>128 μg/mL)

Row | SMILES | IC50 (FIIa (Homo sapiens); [6]) [nM] | IC50 (intrinsic factor Xase; [7]) [nM] | IC50 (FXa (Homo sapiens); [8]) [nM] | IC50 (FIIa (Homo sapiens); [3]) [nM] | Drug concentration required for multiplication of coagulation time (μg/mL) APTT (human-controlled plasma [1]) [µg/mL] | IC50 (intrinsic factor Xase; [4]) [nM] | IC50 (FXa (Homo sapiens); [5]) [nM] | Drug concentration required for multiplication of coagulation time (μg/mL) TT (plasma) | Drug concentration required for multiplication of coagulation time (μg/mL) PT (human-controlled plasma [2])
6 | CC(=O)NC(CO)C(OC1OC(C(=O)O)C(OC2OC(COS(=O)(=O)O)C(OS(=O)(=O)O)C(OC3OC(C(=O)O)C(OC4OC(COS(=O)(=O)O)C(OS(=O)(=O)O)C(OC5OC(C(=O)O)C(OC6OC(COS(=O)(=O)O)C(OS(=O)(=O)O)C(OC7OC(C(=O)O)C(OC8OC(COS(=O)(=O)O)C(OS(=O)(=O)O)C(OC9OC(C(=O)O)=CC(OC%10OC(C)C(OS(=O)(=O)O)C(O)C%10OS(=O)(=O)O)C9O)C8NC(C)=O)C(OC8OC(C)C(OS(=O)(=O)O)C(O)C8OS(=O)(=O)O)C7O)C6NC(C)=O)C(OC6OC(C)C(OS(=O)(=O)O)C(O)C6OS(=O)(=O)O)C5O)C4NC(C)=O)C(OC4OC(C)C(OS(=O)(=O)O)C(O)C4OS(=O)(=O)O)C3O)C2NC(C)=O)C(OC2OC(C)C(OS(=O)(=O)O)C(O)C2OS(=O)(=O)O)C1O)C(OS(=O)(=O)O)C(O)COS(=O)(=O)O [Compound A4, L-Fuc2S4S-(α1,3)-ΔUA-(α1,3)-{D-GaNAc4S6S-(β1,4)-[L-Fuc2S4S-(α1,3)]-D-GlcA-(β1,3)}n+1-D-GalNAc4S6S-ol] | > 1180 | 6.67 | > 1180 | – | 5.3 | – | – | # (>128 μg/mL) | # (>128 μg/mL)
